Results reported in patent US20260256792A1, “TREATMENT OF CHRONIC SPONTANEOUS URTICARIA BY ADMINISTERING (R)-2-[3-[4-AMINO-3-(2-FLUORO-4-PHENOXY-PHENYL)PYRAZOLO[3,4-D]PYRIMIDIN-1-YL]PIPERIDINE-1-CARBONYL]-4-METHYL-4-[4-(OXETAN-3-YL)PIPERAZIN-1-YL]PENT-2-ENENITRILE” (priority 2023, published 2026).

Tested on: moderate-to-severe chronic spontaneous urticaria (CSU)
Assay: Phase 2 CSU study: itch severity score over 7 days (ISS7)
Format: in vivo, human
Details: for ISS7 Post-baseline Mean (SD) / ISS7 % Change difference for rilzabrutinib vs. placebo LS Mean (95% CI) / ISS7 % Change from baseline LS Mean (SE) / ISS7 Change difference for rilzabrutinib vs. placebo LS Mean (95% CI) / ISS7 Change from baseline LS Mean (SE): ITT; for Imputed non-responder n (%) (ISS7 reduction of 5 points or more) / Non-responder n (%) (ISS7 reduction of 5 points or more) / OR for rilzabrutinib vs. placebo (ISS7 reduction of 5 points or more) / RRD (%) for rilzabrutinib vs. placebo (ISS7 reduction of 5 points or more) / Responder n (%) (ISS7 reduction of 5 points or more): Omalizumab-Naïve Population, 400 mg BID
Source text: The study comprises a 12 week, randomized, double-blind, placebo-controlled, multi-center, dose-ranging efficacy and safety phase, followed by a 40 week open label extension (OLE) phase (see FIG. 1). The study consists of three phases and an optional OLE phase. […] Clinically, CSU is characterized by the spontaneous and recurrent appearance of pruritic hives. The proposed primary endpoints were the UAS7 at Week 12 in EU and EU reference countries and the ISS7 in the US. Regardless of where a participant was from, all assessments were the same. The UAS7 score is a composite score containing both the HSS7 and the ISS7. This allowed a global assessment of the two key components of urticaria: hives and itch. […] The UAS is a validated PRO measure. […] The daily UAS scores range from 0 to 6 point/day. […] Patients were to complete the UAS using the e-diary. […] The following secondary endpoints were to be analyzed using the same approach as for the primary endpoint: • Change from baseline in UAS7 at Week 4 • Change from baseline in UAS7 at Week 12 (for US and US reference countries) • Change from baseline in ISS7 at Week 12 (except US and US reference countries) • Change from baseline in HSS7 at Week 12

Compound: CC(C)(C=C(C#N)C(=O)N1CCC[C@@H](n2nc(-c3ccc(Oc4ccccc4)cc3F)c3c(N)ncnc32)C1)N1CCN(C2COC2)CC1 [rilzabrutinib, (R)-2-[3-[4-amino-3-(2-fluoro-4-phenoxy-phenyl)pyrazolo[3,4-d]pyrimidin-1-yl]piperidine-1-carbonyl]-4-methyl-4-[4-(oxetan-3-yl)piperazin-1-yl]pent-2-enenitrile]
- ISS7 Post-baseline Mean (SD) (400 mg QPM, Week 8): 10.61 (5.22)
- ISS7 % Change difference for rilzabrutinib vs. placebo LS Mean (95% CI) (400 mg QPM, Week 9): −7.07%
- ISS7 % Change from baseline LS Mean (SE) (400 mg QPM, Week 9): −37.93%
- ISS7 Change difference for rilzabrutinib vs. placebo LS Mean (95% CI) (400 mg QPM, Week 9): −0.74
- ISS7 Change from baseline LS Mean (SE) (400 mg QPM, Week 9): −6.24 (0.96)
- ISS7 Post-baseline Mean (SD) (400 mg QPM, Week 9): 10.45 (5.08)
- ISS7 % Change difference for rilzabrutinib vs. placebo LS Mean (95% CI) (400 mg QPM, Week 10): −1.26%
- ISS7 % Change from baseline LS Mean (SE) (400 mg QPM, Week 10): −39.07 (6.29) %
- ISS7 Change difference for rilzabrutinib vs. placebo LS Mean (95% CI) (400 mg QPM, Week 10): −0.17
- ISS7 Change from baseline LS Mean (SE) (400 mg QPM, Week 10): −6.47 (1.02)
- ISS7 Post-baseline Mean (SD) (400 mg QPM, Week 10): 10.36 (5.24)
- ISS7 % Change difference for rilzabrutinib vs. placebo LS Mean (95% CI) (400 mg QPM, Week 11): −3.30%
- ISS7 % Change from baseline LS Mean (SE) (400 mg QPM, Week 11): −36.92 (6.23) %
- ISS7 Change difference for rilzabrutinib vs. placebo LS Mean (95% CI) (400 mg QPM, Week 11): −0.04
- ISS7 Change from baseline LS Mean (SE) (400 mg QPM, Week 11): −5.90 (0.99)
- ISS7 Post-baseline Mean (SD) (400 mg QPM, Week 11): 10.97 (5.48)
- ISS7 % Change difference for rilzabrutinib vs. placebo LS Mean (95% CI) (400 mg QPM, Week 12): 1.35%
- ISS7 % Change from baseline LS Mean (SE) (400 mg QPM, Week 12): −35.23 (6.55) %
- ISS7 Change difference for rilzabrutinib vs. placebo LS Mean (95% CI) (400 mg QPM, Week 12): 0.85
- ISS7 Change from baseline LS Mean (SE) (400 mg QPM, Week 12): −5.46 (1.03)
- ISS7 Post-baseline Mean (SD) (400 mg QPM, Week 12): 11.37 (5.51)
- ISS7 % Change difference for rilzabrutinib vs. placebo LS Mean (95% CI) (400 mg TID, Week 1): −29.95%
- ISS7 % Change from baseline LS Mean (SE) (400 mg TID, Week 1): −40.41 (5.24) %
- ISS7 Change difference for rilzabrutinib vs. placebo LS Mean (95% CI) (400 mg TID, Week 1): −4.65
- ISS7 Change from baseline LS Mean (SE) (400 mg TID, Week 1): −6.65 (0.76)
- ISS7 Post-baseline Mean (SD) (400 mg TID, Week 1): 9.20 (5.60)
- ISS7 % Change difference for rilzabrutinib vs. placebo LS Mean (95% CI) (400 mg TID, Week 2): −29.81%
- ISS7 % Change from baseline LS Mean (SE) (400 mg TID, Week 2): −49.29 (5.21) %
- ISS7 Change difference for rilzabrutinib vs. placebo LS Mean (95% CI) (400 mg TID, Week 2): −4.51
- ISS7 Change from baseline LS Mean (SE) (400 mg TID, Week 2): −7.92 (0.79)
- ISS7 Post-baseline Mean (SD) (400 mg TID, Week 2): 7.97 (5.99)
- ISS7 % Change difference for rilzabrutinib vs. placebo LS Mean (95% CI) (400 mg TID, Week 3): −27.63%
- ISS7 % Change from baseline LS Mean (SE) (400 mg TID, Week 3): −50.07 (5.21) %
- ISS7 Change difference for rilzabrutinib vs. placebo LS Mean (95% CI) (400 mg TID, Week 3): −3.76
- ISS7 Change from baseline LS Mean (SE) (400 mg TID, Week 3): −7.84 (0.83)
- ISS7 Post-baseline Mean (SD) (400 mg TID, Week 3): 7.93 (5.46)
- ISS7 % Change difference for rilzabrutinib vs. placebo LS Mean (95% CI) (400 mg TID, Week 4): −23.20%
- ISS7 % Change from baseline LS Mean (SE) (400 mg TID, Week 4): −48.97 (5.57) %
- ISS7 Change difference for rilzabrutinib vs. placebo LS Mean (95% CI) (400 mg TID, Week 4): −3.13
- ISS7 Change from baseline LS Mean (SE) (400 mg TID, Week 4): −7.75 (0.88)
- ISS7 Post-baseline Mean (SD) (400 mg TID, Week 4): 7.54 (5.21)
- ISS7 % Change difference for rilzabrutinib vs. placebo LS Mean (95% CI) (400 mg TID, Week 5): −21.69%
- ISS7 % Change from baseline LS Mean (SE) (400 mg TID, Week 5): −54.96 (5.32) %
- ISS7 Change difference for rilzabrutinib vs. placebo LS Mean (95% CI) (400 mg TID, Week 5): −3.36
- ISS7 Change from baseline LS Mean (SE) (400 mg TID, Week 5): −8.93 (0.86)
- ISS7 Post-baseline Mean (SD) (400 mg TID, Week 5): 6.70 (5.91)
- ISS7 % Change difference for rilzabrutinib vs. placebo LS Mean (95% CI) (400 mg TID, Week 6): −26.88%
- ISS7 % Change from baseline LS Mean (SE) (400 mg TID, Week 6): −55.31 (5.83) %
- ISS7 Change difference for rilzabrutinib vs. placebo LS Mean (95% CI) (400 mg TID, Week 6): −4.09
- ISS7 Change from baseline LS Mean (SE) (400 mg TID, Week 6): −8.97 (0.93)
- ISS7 Post-baseline Mean (SD) (400 mg TID, Week 6): 6.81 (6.20)
- ISS7 % Change difference for rilzabrutinib vs. placebo LS Mean (95% CI) (400 mg TID, Week 7): −24.96%
- ISS7 % Change from baseline LS Mean (SE) (400 mg TID, Week 7): −53.83 (5.69) %
- ISS7 Change difference for rilzabrutinib vs. placebo LS Mean (95% CI) (400 mg TID, Week 7): −3.71
- ISS7 Change from baseline LS Mean (SE) (400 mg TID, Week 7): −8.71 (0.91)
- ISS7 Post-baseline Mean (SD) (400 mg TID, Week 7): 7.13 (5.42)
- ISS7 % Change difference for rilzabrutinib vs. placebo LS Mean (95% CI) (400 mg TID, Week 8): −21.97%
- ISS7 % Change from baseline LS Mean (SE) (400 mg TID, Week 8): −54.76 (5.95) %
- ISS7 Change difference for rilzabrutinib vs. placebo LS Mean (95% CI) (400 mg TID, Week 8): −3.05
- ISS7 Change from baseline LS Mean (SE) (400 mg TID, Week 8): −8.66 (0.95)
- ISS7 Post-baseline Mean (SD) (400 mg TID, Week 8): 6.72 (5.76)
- ISS7 % Change difference for rilzabrutinib vs. placebo LS Mean (95% CI) (400 mg TID, Week 9): −24.57%
- ISS7 % Change from baseline LS Mean (SE) (400 mg TID, Week 9): −55.43 (6.01) %
- ISS7 Change difference for rilzabrutinib vs. placebo LS Mean (95% CI) (400 mg TID, Week 9): −3.35
- ISS7 Change from baseline LS Mean (SE) (400 mg TID, Week 9): −8.85 (0.95)
- ISS7 Post-baseline Mean (SD) (400 mg TID, Week 9): 6.33 (5.52)
- ISS7 % Change difference for rilzabrutinib vs. placebo LS Mean (95% CI) (400 mg TID, Week 10): −18.42%
- ISS7 % Change from baseline LS Mean (SE) (400 mg TID, Week 10): −56.23 (6.14) %
- ISS7 Change difference for rilzabrutinib vs. placebo LS Mean (95% CI) (400 mg TID, Week 10): −2.68
- ISS7 Change from baseline LS Mean (SE) (400 mg TID, Week 10): −8.98 (0.99)
- ISS7 Post-baseline Mean (SD) (400 mg TID, Week 10): 6.43 (5.48)
- ISS7 % Change difference for rilzabrutinib vs. placebo LS Mean (95% CI) (400 mg TID, Week 11): −22.13%
- ISS7 % Change from baseline LS Mean (SE) (400 mg TID, Week 11): −55.75 (6.15) %
- ISS7 Change difference for rilzabrutinib vs. placebo LS Mean (95% CI) (400 mg TID, Week 11): −3.15
- ISS7 Change from baseline LS Mean (SE) (400 mg TID, Week 11): −9.02 (0.96)
- ISS7 Post-baseline Mean (SD) (400 mg TID, Week 11): 6.57 (5.76)
- ISS7 % Change difference for rilzabrutinib vs. placebo LS Mean (95% CI) (400 mg TID, Week 12): −23.23%
- ISS7 % Change from baseline LS Mean (SE) (400 mg TID, Week 12): −59.81 (6.28) %
- ISS7 Change difference for rilzabrutinib vs. placebo LS Mean (95% CI) (400 mg TID, Week 12): −3.26
- ISS7 Change from baseline LS Mean (SE) (400 mg TID, Week 12): −9.58 (1.01)
- ISS7 Post-baseline Mean (SD) (400 mg TID, Week 12): 5.59 (5.58)
- Imputed non-responder n (%) (ISS7 reduction of 5 points or more) (Week 1): 0 n (%)
- Non-responder n (%) (ISS7 reduction of 5 points or more) (Week 1): 18 (51.4) n (%)
- OR for rilzabrutinib vs. placebo (ISS7 reduction of 5 points or more) (Week 1): 3.240
- RRD (%) for rilzabrutinib vs. placebo (ISS7 reduction of 5 points or more) (Week 1): 25.3%
- Responder n (%) (ISS7 reduction of 5 points or more) (Week 1): 17 (48.6) n (%)
- Imputed non-responder n (%) (ISS7 reduction of 5 points or more) (Week 2): 1 (2.9) n (%)
- Non-responder n (%) (ISS7 reduction of 5 points or more) (Week 2): 17 (48.6) n (%)
- OR for rilzabrutinib vs. placebo (ISS7 reduction of 5 points or more) (Week 2): 2.836
- RRD (%) for rilzabrutinib vs. placebo (ISS7 reduction of 5 points or more) (Week 2): 24.1%
- Responder n (%) (ISS7 reduction of 5 points or more) (Week 2): 18 (51.4) n (%)
